In patent publication US12612412B2, “Antiviral heterocyclic compounds” (Enanta Pharmaceuticals, Inc., priority 2021, dated 2026) one finds EC50 data, which are given here for 38 molecules.

Each structure is given as a SMILES string. A value given as a limit tells only on which side of the number the result lay.

The subject of the first test is genotype A, "Long" strain RSV. The experiment in a line: RSV-A assay (CPE protection in Hep-2 cells, ATPlite readout). In kind it is cell-based, Human respiratory syncytial virus (HRSV). To be noted: human respiratory syncytial virus, RSV-A Long strain, MOI 0.1, CPE protection, read-out: Human RSV-A (“Long”) EC50. In short, it runs like this:
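ATPlite luminescence (cellular ATP) served as the measure of cell health after 5 days of infection. Hep-2 cells at 8,000 per well received duplicate 2-fold compound dilutions plus virus at MOI 0.1, and EC50 was calculated from CPE protection.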
(Cellular ATP, detected with luciferase, serves as a proxy for viable cell number.)
Consider `Cc1cnc2c(OC(F)F)cc(C(=O)NC[C@](O)(c3cc4c(c(-c5ccc(F)c(C(F)(F)F)c5)n3)OC[C@]4(C)C(N)=O)C3CC3)cc2c1` [Example 1208], for which the EC50 was under 200 nM.

Take `COc1cc(C(=O)NC[C@](O)(c2cc3c(c(-c4ccc5c(c4)OC(F)(F)O5)n2)OC[C@]3(C)C(N)=O)C(F)(F)F)cc2cc(C)nnc12` [Example 1110]: the EC50 was under 200 nM.

For the molecule `COc1cc(C(=O)NC[C@](O)(c2cc3c(c(-c4ccc(Cl)c(Cl)c4F)n2)OC[C@]3(C)C(N)=O)C(F)(F)F)cc2cn(C3CC3)nc12` [Example 1257], the EC50 is under 200 nM. Take `COc1cc(C(=O)NC[C@](O)(c2cc3c(c(-c4ccc(F)cc4)n2)OC[C@]3(C)C(N)=O)C2CC2)cc2cc(C)nnc12` [Example 1108]: the EC50 is under 200 nM. On the same count and under the same terms, the result for `COc1cc(C(=O)NC[C@](O)(c2cc3c(c(-c4ccc(F)cc4)n2)OC[C@]3(C)C(N)=O)C(F)(F)F)cn2nc(C3CC3)cc12` [Example 879] reads over 200 nM; that for `COc1cc(C(=O)NC[C@](O)(c2cc3c(c(-c4ccc(F)cc4)n2)OC[C@]3(C)C(=O)NC2CC2)C(F)(F)F)cc2cn(C3CC3)nc12` [Example 1172], under 200 nM; that for `COc1cc(C(=O)NC[C@](O)(c2cc3c(c(-c4cc(Cl)cc(F)c4Cl)n2)OC[C@]3(C)C(N)=O)C(F)(F)F)cc2cn(C3CC3)nc12` [Example 1259], under 200 nM. Still for that read-out and setting: the result for `COc1cc(C(=O)NCC(O)(c2cc3c(c(-c4ccc5c(c4)OC(F)(F)C5(F)F)n2)OC[C@]3(C)C(N)=O)C(F)(F)F)cc2cn(C3CC3)nc12` (some centres unmarked) [Example 1236] reads over 200 nM; that for `COc1cc(C(=O)NC[C@](O)(c2cc3c(c(-c4c(F)ccc(F)c4F)n2)OC[C@]3(C)C(N)=O)C2CC2)cc2cn(C3CC3)nc12` [Example 1274], under 200 nM.

As to `COc1cc(C(=O)NC[C@](O)(c2cc3c(c(-c4cc(Cl)ccc4Cl)n2)OC[C@]3(C)C(N)=O)C2CC2)cc2cn(C3CC3)nc12` [Example 1280], the EC50 is under 200 nM. On the same count and under the same terms, the result for `COc1cc(C(=O)NC[C@](O)(c2cc3c(c(-c4cccc(Cl)c4Cl)n2)OC[C@]3(C)C(N)=O)C(F)(F)F)cc2cn(C3CC3)nc12` [Example 1253] reads under 200 nM.

The test is the same for the next values; noted with them: human respiratory syncytial virus, genotype A “Long” strain RSV, MOI 0.1, CPE protection, read-out: Human RSV-A (“Long”).
For the molecule `CC(C)(O)CNC(=O)Nc1cc(C(=O)NC[C@](O)(c2cc3c(c(-c4ccc(F)cc4)n2)OC[C@]3(C)C(N)=O)C(F)(F)F)cc2cc(C3CC3)cnc12` [Example 215], the EC50 was under 200 nM.

Turning to `COc1cc(C(=O)NC[C@](O)(c2cc3c(c(-c4ccc(F)cc4)n2)OC[C@@]3(CF)C(N)=O)C(F)(F)F)cc2cc(C(F)(F)F)cnc12` [Example 286], the EC50 is under 200 nM. With `COc1cc(C(=O)NC[C@](O)(c2cc3c(c(-c4ccc(F)cc4)n2)OCC3(C(N)=O)C(F)F)C(F)(F)F)cc2cc(Cl)c(C)nc12` (some centres unmarked) [Example 256], the EC50 is under 200 nM. The same measure, in the same setting: the result for `COc1cc(C(=O)NC[C@](O)(c2cc3c(c(-c4ccc(F)cc4)n2)OCC3(C(N)=O)C(F)F)C(F)(F)F)cc2cc(C(F)(F)F)cnc12` (some centres unmarked) [Example 257] reads under 200 nM; that for `C[C@]1(C(N)=O)COc2c1cc([C@@](O)(CNC(=O)c1ccc3[nH]ccc3c1F)C(F)(F)F)nc2-c1ccc(F)cc1` [Example 438], over 200 nM. For the molecule `COc1cc(C(=O)NC[C@](O)(c2cc3c(c(-c4ccc(F)cc4)n2)OCC3(CF)C(N)=O)C(F)(F)F)cc2cn(C3CC3)nc12` (some centres unmarked) [Example 295], the EC50 is under 200 nM. In the case of `NC(=O)[C@]1(C2CC2)COc2c1cc([C@@](O)(CNC(=O)c1cc(F)c3nc(N)sc3c1)C(F)(F)F)nc2-c1ccc(F)cc1` [Example 262], the EC50 is over 200 nM.

For the molecule `Cc1cnc2c(Nc3ccc(C(C)C)nn3)cc(C(=O)NC[C@](O)(c3cc4c(c(-c5ccc(F)cc5)n3)OC[C@]4(C)C(N)=O)C(F)(F)F)cc2c1` [Example 115], the EC50 was under 200 nM. As for `Cn1ccc(C(=O)NC[C@](O)(c2cc3c(c(-c4ccc(F)cc4)n2)OC[C@]3(C)C(N)=O)C(F)(F)F)n1` [Example 411], the EC50 was over 200 nM. On the same count and under the same terms, the result for `COc1cccc(C(=O)NC[C@](O)(c2cc3c(c(-c4ccc(F)cc4)n2)OC[C@]3(C)C(N)=O)C(F)(F)F)c1F` [Example 427] reads over 200 nM; that for `CC[C@@]1(C(N)=O)COc2c1cc([C@@](O)(CNC(=O)c1ccc(OC3CC3)c(OC)c1)C(F)(F)F)nc2-c1ccc(F)cc1` [Example 250], over 200 nM.

Take `COc1cc(C(=O)NC[C@](O)(c2cc3c(c(-c4ccc(F)cc4)n2)OC[C@]3(C)C(N)=O)C(F)(F)F)cc2nc(N)oc12` [Example 89]: the EC50 is under 200 nM. With `COc1cc(C(=O)NC[C@](O)(c2cc3c(c(-c4ccc(F)cc4)n2)OC[C@]3(C)C(N)=O)C(F)(F)F)cc2cc(C(=O)O)c(C)nc12` [Example 76], the EC50 was over 200 nM. Take `C[C@]1(C(N)=O)COc2c1cc([C@@](O)(CNC(=O)c1ccc3[nH]c(C4CC4)cc3c1)C(F)(F)F)nc2-c1ccc(F)cc1` [Example 205]: the EC50 is over 200 nM. On the same count and under the same terms, to `C[C@]1(C(N)=O)COc2c1cc([C@@](O)(CNC(=O)c1ccn3nccc3n1)C(F)(F)F)nc2-c1ccc(F)cc1` [Example 433] belongs over 200 nM.

For the molecule `COc1cc(C(=O)NC[C@](O)(c2cc3c(c(-c4ccc(F)cc4)n2)OCC3(C(N)=O)C(F)F)C(F)(F)F)ccc1OC1CC1` (some centres unmarked) [Example 261], the EC50 is under 200 nM. On the same count and under the same terms, the result for `C[C@]1(C(N)=O)COc2c1cc([C@@](O)(CNC(=O)c1ccc3nc(NC(=O)[C@@H](N)CO)sc3c1)C(F)(F)F)nc2-c1ccc(F)cc1` [Example 187] reads under 200 nM; that for `COc1cc(C(=O)NC[C@](O)(c2cc3c(c(-c4ccc(F)cc4)n2)OC[C@]3(C(N)=O)C2CC2)C(F)(F)F)cn2cc(C3CC3)nc12` [Example 273], over 200 nM. For the molecule `COc1cc(C(=O)NC[C@](O)(c2cc3c(c(-c4ccc(F)cc4)n2)OC[C@]3(C)C(N)=O)C(F)(F)F)cc2cc(C)c(C(=O)O)nc12` [Example 5], the EC50 is over 200 nM. In the case of `Cc1ccc2nc(C(=O)NC[C@](O)(c3cc4c(c(-c5ccc(F)cc5)n3)OC[C@]4(C)C(N)=O)C(F)(F)F)cn2c1` [Example 398], the EC50 was over 200 nM. Take `C[C@]1(C(N)=O)COc2c1cc([C@@](O)(CNC(=O)c1cn3cc(F)ccc3n1)C(F)(F)F)nc2-c1ccc(F)cc1` [Example 809]: the EC50 was over 200 nM. `C[C@]1(C(N)=O)COc2c1cc([C@@](O)(CNC(=O)c1ccc3[nH]c(=O)oc3c1)C(F)(F)F)nc2-c1ccc(F)cc1` [Example 318]: the EC50 was under 200 nM. Take `COc1cccc(-n2cc(C(=O)NC[C@](O)(c3cc4c(c(-c5ccc(F)cc5)n3)OC[C@]4(C)C(N)=O)C(F)(F)F)cn2)c1` [Example 449]: the EC50 is over 200 nM. On the same count and under the same terms, to `C[C@]1(C(N)=O)COc2c1cc([C@@](O)(CNC(=O)c1cn3cc(OC(F)(F)F)ccc3n1)C(F)(F)F)nc2-c1ccc(F)cc1` [Example 814] belongs over 200 nM; to `C[C@]1(C(N)=O)COc2c1cc([C@@](O)(CNC(=O)c1cnn3cccc3c1)C(F)(F)F)nc2-c1ccc(F)cc1` [Example 201], over 200 nM; to `Cc1cc2nc(C(=O)NC[C@](O)(c3cc4c(c(-c5ccc(F)cc5)n3)OC[C@]4(C)C(N)=O)C(F)(F)F)cc(C)n2n1` [Example 181], over 200 nM. In the case of `COc1cc(C(=O)NC[C@](O)(c2cc3c(c(-c4ccc(F)cc4)n2)OCC3(C(N)=O)C(F)F)C(F)(F)F)cc2c1=NC(C1CC1)N=2` (some centres unmarked) [Example 253], the EC50 was under 200 nM.
